Source: article PMC9249808, “A novel lipidic peptide with potential to promote balanced effector-regulatory T cell responses” (Scientific Reports, 2022)

Legend:
Lck-WT protein = test: Lck binding assay (non-cell-based ELISA); conditions: peptide coated 10 µg/mL in PBS, 4 °C 20 h; Lck-WT (mCherry, c-myc tag) 2 h room temperature, HRP anti myc, 450 nm; duplicate experiments, 3 technical replicates; negative control PBS; Fig. 6b
Method: Lck wild-type (Lck-WT) was prepared in CHO cells. The plasmid for the expression of Lck-WT protein was kindly provided by the research laboratory of Professor Katarina Gaus. The plasmid was encoded for mammalian cell expression of the Lck-WT protein with a C-terminal mCherry reporter. A twin-strep tag was incorporated at the N-terminal of the Lck-WT for purification, and a c-myc epitope tag was placed at the C-terminal, after mCherry for detection of protein expression. A midiprep DNA preparation of the plasmid was performed using the Macherey–Nagel Midi kit as per manufacturer’s instructions. For transient transfections plasmid DNA was transfected into CHO-S cells using 2 μg DNA mL^−1 cells at a concentration of 3 million cells mL^−1. DNA was complexed with polyethylenimine-Pro (PolyPlus) in Opti-Pro serum free medium (Life Technologies) at a DNA (μg) to PEI (μL) ratio of 1:4 (w:v) for 15 min prior to transfecting suspension adapted CHO cells. […]
The peptides, IK14004 and IK14000, were reconstituted into PBS at 1 mg/mL. […] 100 µL of 2 M sulphuric acid was added to stop the reaction and the absorbance values recorded at a wavelength of 450 nm using SpectraMax (Molecular Devices).

[1] = tested on: CD8+ T cells within PBMC cultures; test: Intracellular IFN-γ in CD8+ T cells within PBMC cultures (flow cytometry); assay type: cell-based, human; conditions: anti-CD3, 24 h, MFI, n = 4, Fig. 5d
Method: (§1) PBMCs were resuspended in RPMI-10 (RPMI-1640; ThermoFisher) supplemented with 10% heat inactivated Foetal Bovine Serum (LabTech), 100 U/mL penicillin, 100 µg/mL streptomycin (ThermoFisher), 2 mM L-glutamine (ThermoFisher), and 50 µM β-mercaptoethanol (ThermoFisher) at 1 × 10^6 cells/mL and plated at a density of 1 × 10^5 per well (100 µL) in 96-well, flat-bottom culture plates. PBMCs were stimulated with 1 µg/mL of soluble anti-CD3 (BioLegend). The lipidic peptide, IK14004, and IK14000, i.e., […] minus conjugation to [{2}Adod]4, were solubilised as a 1 mM stock solution in sterile milliQ water (Lonza) and added to wells at a final volume of 50 µL per well together with soluble anti-CD3 (1 µg/mL final, 50 µL per well) (Biolegend). To test the effect of peptides, cells were cultured for 24–72 h at 37 °C and 5% CO2. Vehicle controls in peptide-based experiments comprised 0.13% sterile milliQ water in culture medium whereas 0.1% DMSO in culture medium was used as vehicle control for comparison with the Lck inhibitor, A-770041, in the absence of peptides. […]

[2] = tested on: CD4+ T cells within PBMC cultures; test: Intracellular IFN-γ in CD4+ T cells within PBMC cultures (flow cytometry); assay type: cell-based, human; conditions: anti-CD3, 24 h, MFI, n = 4, Fig. 5c
Method: as §1

c-Src = conditions: cited from earlier work
Source text: Given the role of NFAT proteins in regulating transcription of IFN-γ[46],[47], suppression of NFAT attenuates IFN-γ-activated endogenous IL-12p40 mRNA expression. In addition, IFN-γ production in DCs is dependent on a Janus kinase (JAK) family member, Tyk2, that signals via signal transducers and activators of transcription (STATs)[49] and within DCs, c-Src contributes to c ... || Given the role of Lck in upstream signalling upon TCR activation[34],[35] which leads to IL-2 production[10],[11], we tested the effect of a known Lck inhibitor, A-770041 on IL-2 expression within supernatants from stimulated T cell cultures after 72 h.

RSKAKNPLYR [IK14000]
binding to Lck (Lck-WT protein): no different to the negative control
intracellular expression of IFN-γ in CD8+ T cells [1]: unchanged
intracellular expression of IFN-γ in CD4+ T cells [2]: unchanged
c-Src activity, earlier report (c-Src): inhibits c-Src activity
